Source: ChEMBL document CHEMBL3991601, “The target landscape of clinical kinase drugs” (Science, 2017)
Calls of active or inactive are those of the source.

What was measured:
[1] = biological target: Calcium/calmodulin-dependent protein kinase type II subunit gamma (Homo sapiens, UniProt Q13555)
[2] = biological target: Serine/threonine-protein kinase MRCK gamma (Homo sapiens, UniProt Q6DT37)
[3] = biological target: Serine/threonine-protein kinase/endoribonuclease IRE1 (Homo sapiens, UniProt O75460)
Scaffold protein ILK = biological target: T1, Scaffold protein ILK (Homo sapiens, UniProt Q13418)
T1 sequence (Q13418 whole entry): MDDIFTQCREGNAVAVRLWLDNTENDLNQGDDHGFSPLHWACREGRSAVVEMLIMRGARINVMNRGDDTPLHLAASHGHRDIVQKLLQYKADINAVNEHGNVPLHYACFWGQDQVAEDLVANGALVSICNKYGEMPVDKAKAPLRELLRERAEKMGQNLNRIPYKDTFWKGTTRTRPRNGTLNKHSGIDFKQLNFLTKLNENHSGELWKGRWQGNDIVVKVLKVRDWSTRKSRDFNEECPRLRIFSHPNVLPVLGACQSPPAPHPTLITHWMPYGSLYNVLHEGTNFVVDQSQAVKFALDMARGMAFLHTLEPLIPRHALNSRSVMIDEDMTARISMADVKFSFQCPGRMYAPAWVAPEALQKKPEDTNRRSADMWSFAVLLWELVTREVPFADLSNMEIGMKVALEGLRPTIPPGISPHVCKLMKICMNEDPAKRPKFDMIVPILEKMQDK

[4] = biological target: Mitogen-activated protein kinase 3 (Homo sapiens, UniProt P27361)
[5] = biological target: T2, Membrane-associated tyrosine- and threonine-specific cdc2-inhibitory kinase (Homo sapiens, UniProt Q99640)
T2 sequence (Q99640 whole entry): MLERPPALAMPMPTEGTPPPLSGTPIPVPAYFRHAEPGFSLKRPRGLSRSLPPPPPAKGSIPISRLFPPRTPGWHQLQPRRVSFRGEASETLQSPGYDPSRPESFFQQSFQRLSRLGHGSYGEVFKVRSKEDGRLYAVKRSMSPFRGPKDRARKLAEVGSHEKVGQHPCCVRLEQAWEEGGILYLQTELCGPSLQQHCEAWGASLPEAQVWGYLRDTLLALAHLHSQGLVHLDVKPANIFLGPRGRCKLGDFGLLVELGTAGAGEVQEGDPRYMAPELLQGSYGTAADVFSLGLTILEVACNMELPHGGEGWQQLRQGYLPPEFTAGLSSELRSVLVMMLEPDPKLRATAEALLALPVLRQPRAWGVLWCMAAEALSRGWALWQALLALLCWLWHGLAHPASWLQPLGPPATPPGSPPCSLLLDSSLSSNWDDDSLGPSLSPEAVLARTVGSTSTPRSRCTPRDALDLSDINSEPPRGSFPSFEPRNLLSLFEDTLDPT

[6] = biological target: Protein kinase C delta type (Homo sapiens, UniProt Q05655)
[7] = biological target: T3, Serine/threonine-protein kinase D2 (Homo sapiens, UniProt Q9BZL6)
T3 sequence (Q9BZL6 whole entry): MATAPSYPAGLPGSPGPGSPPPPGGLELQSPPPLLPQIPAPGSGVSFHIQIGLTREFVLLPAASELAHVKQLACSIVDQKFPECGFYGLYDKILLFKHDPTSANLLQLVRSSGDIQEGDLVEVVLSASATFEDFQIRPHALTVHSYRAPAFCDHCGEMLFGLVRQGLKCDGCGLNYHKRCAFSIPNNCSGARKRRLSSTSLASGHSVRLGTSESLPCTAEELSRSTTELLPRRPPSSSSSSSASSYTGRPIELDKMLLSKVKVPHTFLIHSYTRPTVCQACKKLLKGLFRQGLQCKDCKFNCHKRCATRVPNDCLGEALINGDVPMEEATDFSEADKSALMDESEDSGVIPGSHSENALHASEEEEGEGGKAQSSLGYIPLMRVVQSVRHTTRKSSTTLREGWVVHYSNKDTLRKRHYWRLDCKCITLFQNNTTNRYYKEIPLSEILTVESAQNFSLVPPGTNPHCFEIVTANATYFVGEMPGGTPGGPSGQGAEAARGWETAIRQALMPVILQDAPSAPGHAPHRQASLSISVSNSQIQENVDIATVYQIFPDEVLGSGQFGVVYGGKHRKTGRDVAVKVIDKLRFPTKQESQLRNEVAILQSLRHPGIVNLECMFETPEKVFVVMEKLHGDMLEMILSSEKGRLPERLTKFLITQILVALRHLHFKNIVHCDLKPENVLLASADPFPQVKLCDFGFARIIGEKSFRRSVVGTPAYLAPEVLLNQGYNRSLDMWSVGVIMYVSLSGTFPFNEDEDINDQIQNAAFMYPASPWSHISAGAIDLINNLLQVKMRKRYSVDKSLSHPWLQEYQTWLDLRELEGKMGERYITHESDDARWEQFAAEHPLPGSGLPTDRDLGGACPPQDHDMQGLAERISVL

[8] = biological target: Ribosomal protein S6 kinase alpha-5 (Homo sapiens, UniProt O75582)
Septin-9 = biological target: T4, Septin-9 (Homo sapiens, UniProt Q9UHD8)
T4 sequence (Q9UHD8 whole entry): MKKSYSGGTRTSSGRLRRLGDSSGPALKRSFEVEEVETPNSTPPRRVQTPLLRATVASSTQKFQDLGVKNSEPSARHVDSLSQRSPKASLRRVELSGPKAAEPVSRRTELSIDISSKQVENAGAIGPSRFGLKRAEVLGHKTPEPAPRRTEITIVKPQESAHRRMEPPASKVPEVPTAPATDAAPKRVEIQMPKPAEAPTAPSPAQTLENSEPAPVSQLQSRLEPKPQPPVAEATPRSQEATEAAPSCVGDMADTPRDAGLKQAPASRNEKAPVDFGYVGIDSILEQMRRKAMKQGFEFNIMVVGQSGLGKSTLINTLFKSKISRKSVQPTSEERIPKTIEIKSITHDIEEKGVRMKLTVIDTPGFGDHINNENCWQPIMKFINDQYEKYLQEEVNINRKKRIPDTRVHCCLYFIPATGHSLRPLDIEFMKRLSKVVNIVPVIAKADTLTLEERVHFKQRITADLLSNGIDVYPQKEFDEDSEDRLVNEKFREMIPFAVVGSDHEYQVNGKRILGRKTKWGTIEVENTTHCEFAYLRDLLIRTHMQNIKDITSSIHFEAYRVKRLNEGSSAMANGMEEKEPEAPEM
Note: in the data inactive means no Kd found up to 30 µM.

Sequence of Ribosomal protein S6 kinase alpha-5 (O75582 whole entry): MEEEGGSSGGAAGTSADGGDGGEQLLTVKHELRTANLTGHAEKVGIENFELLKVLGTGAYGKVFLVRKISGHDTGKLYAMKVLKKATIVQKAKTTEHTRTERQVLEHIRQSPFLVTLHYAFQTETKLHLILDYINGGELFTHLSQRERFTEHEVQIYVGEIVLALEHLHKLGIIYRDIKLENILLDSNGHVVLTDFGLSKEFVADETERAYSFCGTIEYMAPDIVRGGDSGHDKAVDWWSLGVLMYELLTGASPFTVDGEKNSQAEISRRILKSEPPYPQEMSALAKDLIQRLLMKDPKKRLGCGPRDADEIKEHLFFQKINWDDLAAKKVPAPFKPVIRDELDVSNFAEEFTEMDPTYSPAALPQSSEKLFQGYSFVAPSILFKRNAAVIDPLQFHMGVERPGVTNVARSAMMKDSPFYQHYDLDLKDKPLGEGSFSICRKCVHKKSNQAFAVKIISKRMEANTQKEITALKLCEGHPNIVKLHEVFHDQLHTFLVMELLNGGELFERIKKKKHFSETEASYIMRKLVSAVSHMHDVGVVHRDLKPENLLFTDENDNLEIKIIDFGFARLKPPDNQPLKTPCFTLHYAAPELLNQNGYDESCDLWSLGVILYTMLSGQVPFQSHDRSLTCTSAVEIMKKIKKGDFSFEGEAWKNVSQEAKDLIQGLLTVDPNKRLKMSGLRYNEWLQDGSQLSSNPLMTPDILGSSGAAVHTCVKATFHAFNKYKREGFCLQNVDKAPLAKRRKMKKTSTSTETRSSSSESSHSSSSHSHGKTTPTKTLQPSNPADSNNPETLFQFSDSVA
Sequence of Serine/threonine-protein kinase/endoribonuclease IRE1 (O75460 whole entry): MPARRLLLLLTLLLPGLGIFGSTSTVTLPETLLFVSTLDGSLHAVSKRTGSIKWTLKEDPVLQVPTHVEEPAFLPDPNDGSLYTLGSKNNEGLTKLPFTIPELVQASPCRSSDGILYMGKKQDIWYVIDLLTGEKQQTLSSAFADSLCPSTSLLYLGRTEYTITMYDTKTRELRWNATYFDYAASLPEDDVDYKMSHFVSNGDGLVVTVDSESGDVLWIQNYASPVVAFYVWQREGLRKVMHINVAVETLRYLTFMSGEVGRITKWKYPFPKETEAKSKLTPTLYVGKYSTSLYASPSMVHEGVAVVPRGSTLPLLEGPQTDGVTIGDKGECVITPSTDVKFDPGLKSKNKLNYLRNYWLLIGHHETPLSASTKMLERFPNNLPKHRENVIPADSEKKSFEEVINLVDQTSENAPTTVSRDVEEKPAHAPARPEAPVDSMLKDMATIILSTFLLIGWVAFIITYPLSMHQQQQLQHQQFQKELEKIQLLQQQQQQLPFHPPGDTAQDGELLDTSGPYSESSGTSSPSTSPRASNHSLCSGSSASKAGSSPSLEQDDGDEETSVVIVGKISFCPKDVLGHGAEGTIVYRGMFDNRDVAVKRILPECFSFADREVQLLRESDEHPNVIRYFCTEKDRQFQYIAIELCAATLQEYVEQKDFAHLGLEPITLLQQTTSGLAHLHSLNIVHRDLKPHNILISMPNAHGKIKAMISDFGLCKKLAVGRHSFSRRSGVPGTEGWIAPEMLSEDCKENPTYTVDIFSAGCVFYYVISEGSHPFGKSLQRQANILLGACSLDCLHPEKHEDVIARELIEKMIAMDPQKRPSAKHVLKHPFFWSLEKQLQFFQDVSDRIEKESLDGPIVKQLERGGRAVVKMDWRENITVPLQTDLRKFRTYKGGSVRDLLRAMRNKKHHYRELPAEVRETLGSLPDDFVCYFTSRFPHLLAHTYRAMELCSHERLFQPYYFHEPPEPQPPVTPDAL
Sequence of Serine/threonine-protein kinase MRCK gamma (Q6DT37 whole entry): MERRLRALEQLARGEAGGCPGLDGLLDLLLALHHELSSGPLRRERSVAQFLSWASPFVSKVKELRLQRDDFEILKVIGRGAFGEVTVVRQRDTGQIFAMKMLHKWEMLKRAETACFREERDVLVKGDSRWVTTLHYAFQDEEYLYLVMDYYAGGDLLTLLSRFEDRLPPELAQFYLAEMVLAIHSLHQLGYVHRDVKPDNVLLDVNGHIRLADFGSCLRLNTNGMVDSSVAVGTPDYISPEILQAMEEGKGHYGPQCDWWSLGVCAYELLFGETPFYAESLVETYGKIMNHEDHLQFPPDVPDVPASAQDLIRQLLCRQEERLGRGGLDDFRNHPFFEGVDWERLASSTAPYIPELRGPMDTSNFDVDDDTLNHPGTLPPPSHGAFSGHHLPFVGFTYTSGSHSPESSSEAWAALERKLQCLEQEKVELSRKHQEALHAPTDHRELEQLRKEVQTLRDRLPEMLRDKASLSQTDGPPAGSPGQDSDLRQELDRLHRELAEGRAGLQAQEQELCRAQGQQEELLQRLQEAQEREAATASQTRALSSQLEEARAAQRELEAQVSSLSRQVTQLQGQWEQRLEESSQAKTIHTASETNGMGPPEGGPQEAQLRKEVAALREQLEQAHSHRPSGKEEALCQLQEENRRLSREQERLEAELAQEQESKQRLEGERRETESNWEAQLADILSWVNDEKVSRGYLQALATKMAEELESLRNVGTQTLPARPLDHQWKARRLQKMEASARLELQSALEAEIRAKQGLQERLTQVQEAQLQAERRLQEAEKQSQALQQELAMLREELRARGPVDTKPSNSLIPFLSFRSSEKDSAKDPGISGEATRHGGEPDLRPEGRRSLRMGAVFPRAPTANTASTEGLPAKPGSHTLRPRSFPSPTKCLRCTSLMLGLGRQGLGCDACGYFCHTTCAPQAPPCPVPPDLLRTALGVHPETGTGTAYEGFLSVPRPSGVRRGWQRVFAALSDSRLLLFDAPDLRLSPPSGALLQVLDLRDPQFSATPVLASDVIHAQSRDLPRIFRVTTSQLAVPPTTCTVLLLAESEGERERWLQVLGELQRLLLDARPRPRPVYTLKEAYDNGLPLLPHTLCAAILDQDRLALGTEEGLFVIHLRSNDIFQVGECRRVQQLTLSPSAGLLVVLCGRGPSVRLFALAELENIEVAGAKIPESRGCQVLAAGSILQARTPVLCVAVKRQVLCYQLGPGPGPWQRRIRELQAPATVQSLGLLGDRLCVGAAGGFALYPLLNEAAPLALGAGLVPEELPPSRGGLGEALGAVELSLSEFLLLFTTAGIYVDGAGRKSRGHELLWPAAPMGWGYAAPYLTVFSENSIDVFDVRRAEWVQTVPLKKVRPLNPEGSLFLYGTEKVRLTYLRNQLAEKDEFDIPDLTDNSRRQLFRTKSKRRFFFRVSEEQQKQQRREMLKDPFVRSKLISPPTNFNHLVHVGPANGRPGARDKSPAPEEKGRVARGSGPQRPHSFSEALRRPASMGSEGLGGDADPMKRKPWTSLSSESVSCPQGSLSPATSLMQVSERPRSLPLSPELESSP
Sequence of Calcium/calmodulin-dependent protein kinase type II subunit gamma (Q13555 whole entry): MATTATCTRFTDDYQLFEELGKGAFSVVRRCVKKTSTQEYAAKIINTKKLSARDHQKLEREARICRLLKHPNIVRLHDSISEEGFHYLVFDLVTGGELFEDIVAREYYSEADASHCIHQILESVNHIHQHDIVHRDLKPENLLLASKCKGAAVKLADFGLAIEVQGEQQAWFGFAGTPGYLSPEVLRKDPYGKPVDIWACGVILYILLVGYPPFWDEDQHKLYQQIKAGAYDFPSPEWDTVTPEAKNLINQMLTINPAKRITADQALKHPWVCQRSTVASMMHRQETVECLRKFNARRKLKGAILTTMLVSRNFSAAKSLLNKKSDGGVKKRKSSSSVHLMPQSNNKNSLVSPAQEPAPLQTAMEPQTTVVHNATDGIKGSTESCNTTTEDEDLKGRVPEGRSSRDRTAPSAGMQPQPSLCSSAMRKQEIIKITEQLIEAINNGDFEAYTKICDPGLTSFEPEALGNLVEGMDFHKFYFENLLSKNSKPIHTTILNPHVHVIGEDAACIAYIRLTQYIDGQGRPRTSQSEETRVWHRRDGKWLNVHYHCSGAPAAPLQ
Sequence of Mitogen-activated protein kinase 3 (P27361 whole entry): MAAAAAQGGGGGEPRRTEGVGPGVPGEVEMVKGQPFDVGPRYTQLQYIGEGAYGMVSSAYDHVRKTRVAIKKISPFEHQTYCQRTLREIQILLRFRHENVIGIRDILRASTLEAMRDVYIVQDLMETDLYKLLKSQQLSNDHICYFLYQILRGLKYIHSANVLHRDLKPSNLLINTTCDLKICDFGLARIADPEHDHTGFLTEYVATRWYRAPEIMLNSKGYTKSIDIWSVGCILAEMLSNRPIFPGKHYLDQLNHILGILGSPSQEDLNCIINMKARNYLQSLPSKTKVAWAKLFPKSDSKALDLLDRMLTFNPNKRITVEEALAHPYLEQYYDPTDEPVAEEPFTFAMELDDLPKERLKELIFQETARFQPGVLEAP
Sequence of Protein kinase C delta type (Q05655 whole entry): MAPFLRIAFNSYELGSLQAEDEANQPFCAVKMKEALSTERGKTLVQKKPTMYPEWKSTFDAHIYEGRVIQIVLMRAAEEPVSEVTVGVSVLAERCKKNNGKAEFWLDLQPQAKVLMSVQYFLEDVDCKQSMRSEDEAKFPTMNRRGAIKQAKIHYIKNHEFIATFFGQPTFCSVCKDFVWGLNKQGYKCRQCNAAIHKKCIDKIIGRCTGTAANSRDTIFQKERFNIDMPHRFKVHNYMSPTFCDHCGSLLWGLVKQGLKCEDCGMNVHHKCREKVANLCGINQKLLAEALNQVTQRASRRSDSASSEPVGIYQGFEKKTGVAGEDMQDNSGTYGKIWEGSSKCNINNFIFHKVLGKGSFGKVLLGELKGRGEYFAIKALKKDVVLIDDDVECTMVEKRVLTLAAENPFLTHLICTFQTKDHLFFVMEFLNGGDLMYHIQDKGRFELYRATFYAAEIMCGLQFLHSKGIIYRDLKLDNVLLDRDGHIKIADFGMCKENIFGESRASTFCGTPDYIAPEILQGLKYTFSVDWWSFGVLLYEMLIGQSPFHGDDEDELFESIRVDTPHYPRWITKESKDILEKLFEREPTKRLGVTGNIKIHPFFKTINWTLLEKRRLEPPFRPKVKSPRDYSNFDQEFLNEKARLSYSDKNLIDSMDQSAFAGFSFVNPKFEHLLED

Row | Structure (SMILES) | Kd [1] | Kd [2] | Kd [3] | Kd (Scaffold protein ILK) | Kd [4] | Kd [5] | Kd [6] | Kd [7] | Kd [8] | Kd (Septin-9)
1 | O=C(O)c1ccc2c(c1)nc(Nc1cccc(Cl)c1)c1ccncc12 [SILMITASERTIB] | > 30 µM (inactive) | > 30 µM (inactive) | > 30 µM (inactive) | > 30 µM (inactive) | > 30 µM (inactive) | > 30 µM (inactive) | > 30 µM (inactive) | > 30 µM (inactive) | > 30 µM (inactive) | > 30 µM (inactive)
2 | Cc1c(Cn2c(C)nc3c(C(=O)O)cc(N4CCOCC4)cc32)cccc1C(F)(F)F [GSK-2636771] | > 30 µM (inactive) | > 30 µM (inactive) | > 30 µM (inactive) | > 30 µM (inactive) | > 30 µM (inactive) | > 30 µM (inactive) | > 30 µM (inactive) | > 30 µM (inactive) | > 30 µM (inactive) | > 30 µM (inactive)
3 | Cn1cc(-c2[nH]c3cc(NC(=O)[C@H](N)C4CCCCC4)cc4c3c2C=NNC4=O)cn1 | > 30 µM (inactive) | > 30 µM (inactive) | > 30 µM (inactive) | > 30 µM (inactive) | 3.21 µM (active) | > 30 µM (inactive) | > 30 µM (inactive) | > 30 µM (inactive) | > 30 µM (inactive) | > 30 µM (inactive)
4 | COc1cc2ncnc(Nc3ccc(F)c(Cl)c3)c2cc1NC(=O)/C=C/CN1CCCCC1 [DACOMITINIB ANHYDROUS] | > 30 µM (inactive) | > 30 µM (inactive) | > 30 µM (inactive) | > 30 µM (inactive) | > 30 µM (inactive) | > 30 µM (inactive) | > 30 µM (inactive) | > 30 µM (inactive) | > 30 µM (inactive) | > 30 µM (inactive)
5 | S=C(NCc1ccc2c(c1)OCO2)N1CCN(c2ncnc3c2oc2ccccc23)CC1 [AMUVATINIB] | > 30 µM (inactive) | > 30 µM (inactive) | > 30 µM (inactive) | > 30 µM (inactive) | > 30 µM (inactive) | > 30 µM (inactive) | > 30 µM (inactive) | > 30 µM (inactive) | > 30 µM (inactive) | > 30 µM (inactive)
6 | C#Cc1cccc(Nc2ncnc3cc4c(cc23)OCCOCCOCCO4)c1 [ICOTINIB] | > 30 µM (inactive) | > 30 µM (inactive) | > 30 µM (inactive) | > 30 µM (inactive) | > 30 µM (inactive) | > 30 µM (inactive) | > 30 µM (inactive) | > 30 µM (inactive) | > 30 µM (inactive) | > 30 µM (inactive)
7 | COc1cc2ncnc(Nc3ccc(O)cc3)c2cc1OC [WHI-P131] | > 30 µM (inactive) | > 30 µM (inactive) | > 30 µM (inactive) | > 30 µM (inactive) | > 30 µM (inactive) | > 30 µM (inactive) | > 30 µM (inactive) | > 30 µM (inactive) | > 30 µM (inactive) | > 30 µM (inactive)
8 | Cn1c(=O)n(-c2ccc(C(C)(C)C#N)cc2)c2c3cc(-c4cnc5ccccc5c4)ccc3ncc21 [DACTOLISIB] | > 30 µM (inactive) | > 30 µM (inactive) | > 30 µM (inactive) | > 30 µM (inactive) | > 30 µM (inactive) | > 30 µM (inactive) | > 30 µM (inactive) | > 30 µM (inactive) | > 30 µM (inactive) | > 30 µM (inactive)
9 | C=CC(=O)Nc1cc(Nc2nccc(-c3cn(C)c4ccccc34)n2)c(OC)cc1N(C)CCN(C)C [OSIMERTINIB] | > 30 µM (inactive) | > 30 µM (inactive) | > 30 µM (inactive) | > 30 µM (inactive) | > 30 µM (inactive) | > 30 µM (inactive) | > 30 µM (inactive) | > 30 µM (inactive) | > 30 µM (inactive) | > 30 µM (inactive)
10 | FC(F)(F)c1ccc(CNc2ccc(Cc3c[nH]c4ncc(Cl)cc34)cn2)cn1 [PEXIDARTINIB] | > 30 µM (inactive) | > 30 µM (inactive) | > 30 µM (inactive) | > 30 µM (inactive) | > 30 µM (inactive) | > 30 µM (inactive) | > 30 µM (inactive) | > 30 µM (inactive) | > 30 µM (inactive) | > 30 µM (inactive)
11 | COc1ccc2c(OCc3nnc4ccc(-c5ccccc5)nn34)ccnc2c1 [AMG-208] | > 30 µM (inactive) | > 30 µM (inactive) | > 30 µM (inactive) | > 30 µM (inactive) | > 30 µM (inactive) | > 30 µM (inactive) | > 30 µM (inactive) | > 30 µM (inactive) | > 30 µM (inactive) | > 30 µM (inactive)
12 | COc1cccc2cc(-c3nc([C@H]4CC[C@H](C(=O)O)CC4)n4ncnc(N)c34)[nH]c12 [OSI-027] | > 30 µM (inactive) | > 30 µM (inactive) | > 30 µM (inactive) | > 30 µM (inactive) | > 30 µM (inactive) | > 30 µM (inactive) | > 30 µM (inactive) | > 30 µM (inactive) | > 30 µM (inactive) | > 30 µM (inactive)
13 | O=C(NC[C@H](O)CO)c1ccncc1Nc1ccc(I)cc1F [PIMASERTIB] | > 30 µM (inactive) | > 30 µM (inactive) | > 30 µM (inactive) | > 30 µM (inactive) | > 30 µM (inactive) | > 30 µM (inactive) | > 30 µM (inactive) | > 30 µM (inactive) | > 30 µM (inactive) | > 30 µM (inactive)
14 | c1cc(OCCN2CCCCC2)cc(-c2n[nH]c3ccc(-c4nc[nH]n4)cc23)c1 [CC-401] | > 30 µM (inactive) | > 30 µM (inactive) | > 30 µM (inactive) | > 30 µM (inactive) | > 30 µM (inactive) | > 30 µM (inactive) | > 30 µM (inactive) | 0.056 µM (active) | > 30 µM (inactive) | > 30 µM (inactive)
